Laboratory results published in patent publication US12668589B2, “N-formamidopyrazoline derivative as P2X3 receptor antagonist and use thereof” (HANGZHOU WESTAN PHARMACEUTICAL TECHNOLOGY CO., LTD, priority 2020, dated 2026).
pIC50: −log10 of the molar value.

Assays:
taste of SD rats = assay: Rat taste test (quinine water / tap water drinking); assay type: in vivo
Protocol: Experimental purpose: to observe an effect of title compounds on taste of SD rats.
• 1.1) Animals and grouping: 40 male SD rats, with about 300 grams per rat. […] A bottle of normal drinking water and a bottle of drinking water containing 0.3 mM quinine hydrochloride were placed in each cage at the same time, and left and right positions where the two bottles of water were placed in all animal feeding cages were the same. After the animals were allowed to freely drink water for 15 minutes, drinking amounts of the two bottles of water were measured respectively to the nearest 0.1 mL. • 1.5) Data statistics: drinking amounts of quinine bitter water and tap water and a total water drinking amount thereof as well as a percentage of quinine water in the total water drinking amount were counted respectively. Water drinking amounts of the bitter water of animals in each group were compared. Whether differences between groups were significant was compared by analysis of variance. 2) Experimental Results

chronic cough = conditions: literature, cited from earlier work
human PAR-1 = target: T1, human PAR-1 (Homo sapiens, UniProt P25116); assay: Inhibitory activity against PAR-1, calcium ion flux fluorescence method (FLIPR); assay type: cell-based; conditions: HEK293/Ga15 cells expressing human PAR-1, TFLLR-NH2 10 μM, starting concentration 30 μM
T1 construct: host or cells: HEK293/Ga15 recombinant cell line
T1 sequence (P25116 22-425): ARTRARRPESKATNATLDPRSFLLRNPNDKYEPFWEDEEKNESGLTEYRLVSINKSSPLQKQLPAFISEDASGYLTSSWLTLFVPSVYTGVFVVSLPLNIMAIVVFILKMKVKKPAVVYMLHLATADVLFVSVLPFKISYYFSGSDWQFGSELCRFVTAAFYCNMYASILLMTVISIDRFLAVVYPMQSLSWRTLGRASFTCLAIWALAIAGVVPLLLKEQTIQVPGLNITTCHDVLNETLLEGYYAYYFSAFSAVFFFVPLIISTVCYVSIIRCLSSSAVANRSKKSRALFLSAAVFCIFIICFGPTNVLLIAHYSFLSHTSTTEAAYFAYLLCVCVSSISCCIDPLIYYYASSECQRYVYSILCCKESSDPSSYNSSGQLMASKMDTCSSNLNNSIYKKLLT
Protocol: The inhibitory activity of the title compounds against human PAR-1 was determined by a calcium ion flux fluorescence method (an FLIPR method). The method thereof was reported in the literature of Zhong et al. [Zhong et al. J Biomol Struct Dyn, 2017, 35(13):2853].
An HEK293/Ga15 recombinant cell line (HD Biosciences, Shanghai, China) stably expressing human PAR-1 was cultured in a DMEM (Thermo Fisher Scientific, Shanghai) culture solution (containing 10% calf serum, 800 μg/mL G418). Incubator conditions were 37° C. and an air humidity with 5% CO2.
On the first day, 20 μL per well of PAR-1 cells at a concentration of 4E+5 cells/mL were seeded in a 384-well analysis plate (Corning 3712). […] On the second day, a culture solution in each well was poured off. Then, 20 μL of 1×loading dye (2 μM Fluo-8 AM in 1×HBSS with 20 mM HEPES, 1 mM Probenecid, 0.025% Pluronic F-127 assay buffer) was added in each well. The cell analysis plate was cultured for 1 hour at a room temperature.
The compounds were dissolved into 100% DMSO to prepare a 10 mM stock solution, which was stored at −20° C. On the day of use, the compound stock solution was thawed at a room temperature. Each compound was subjected to 1:3 serial dilution at 11 concentration points with a DMEM culture solution with a starting concentration of 30 μM. Each compound was subjected to double dilution for testing. A positive control compound was diluted in the same way with SCH79797 with a starting concentration of 30 μM.
The cell analysis plate was placed in a FLIPR instrument (Molecular Device) and 10 μL of compounds (3× of a final concentration) in a compound plate was added to corresponding wells of the cell analysis plate. After 10 minutes, 10 μL of TFLLR-NH2 (TFA) (a final concentration of 10 μM) was added to each well to stimulate generation of intracellular calcium flux signals. Ca^++-dependent fluorescence signals were continuously monitored at excitation wavelengths of 470/495 nm and emission wavelengths of 515/575 nm to analyze the inhibitory activity of the compounds.
Data were collected and analyzed by using an FLIPR program. The inhibitory (or agonistic) activity of the compounds at each concentration was assessed by fluorescence peaks. IC50 values of the compounds were calculated by using EXCEL and PRISM programs.

gpP2X3 = target: T2, gpP2X3 (Cavia porcellus, UniProt H0VWY5); assay: Inhibitory activity against P2X3 in guinea pigs (electrophysiological method); assay type: cell-based; conditions: guinea pig P2X3, electrophysiological method
T2 sequence (H0VWY5 1-391): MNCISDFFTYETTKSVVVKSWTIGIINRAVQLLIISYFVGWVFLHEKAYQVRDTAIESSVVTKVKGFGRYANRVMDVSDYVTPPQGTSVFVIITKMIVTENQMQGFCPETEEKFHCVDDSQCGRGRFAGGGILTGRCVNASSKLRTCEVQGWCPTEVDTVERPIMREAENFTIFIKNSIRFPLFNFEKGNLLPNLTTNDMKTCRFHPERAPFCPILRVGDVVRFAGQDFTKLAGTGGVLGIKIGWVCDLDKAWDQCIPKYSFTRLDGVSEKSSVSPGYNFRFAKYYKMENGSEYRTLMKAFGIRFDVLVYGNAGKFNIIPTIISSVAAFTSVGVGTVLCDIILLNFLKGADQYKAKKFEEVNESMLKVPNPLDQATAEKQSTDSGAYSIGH

rP2X3 = target: T3, rP2X3 (Rattus norvegicus, UniProt P49654); assay: Inhibitory activity against P2X3 in rats (electrophysiological method); assay type: cell-based
T3 construct: expressed in transfected cells; host or cells: HEK293
T3 sequence (P49654 1-397): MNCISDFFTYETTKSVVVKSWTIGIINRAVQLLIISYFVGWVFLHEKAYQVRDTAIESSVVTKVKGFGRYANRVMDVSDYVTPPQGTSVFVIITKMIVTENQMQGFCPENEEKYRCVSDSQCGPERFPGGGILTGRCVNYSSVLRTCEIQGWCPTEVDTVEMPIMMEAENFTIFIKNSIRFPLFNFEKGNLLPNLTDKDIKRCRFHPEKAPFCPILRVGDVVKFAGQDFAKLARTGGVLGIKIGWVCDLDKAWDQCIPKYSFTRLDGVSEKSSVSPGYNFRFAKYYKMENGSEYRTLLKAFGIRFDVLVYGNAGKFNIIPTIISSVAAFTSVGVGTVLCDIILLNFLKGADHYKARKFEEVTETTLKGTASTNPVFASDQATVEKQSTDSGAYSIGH

human P2X3 [1] = target: T4, human P2X3 (Homo sapiens, UniProt P56373); assay: cell-based
T4 sequence (P56373 1-397): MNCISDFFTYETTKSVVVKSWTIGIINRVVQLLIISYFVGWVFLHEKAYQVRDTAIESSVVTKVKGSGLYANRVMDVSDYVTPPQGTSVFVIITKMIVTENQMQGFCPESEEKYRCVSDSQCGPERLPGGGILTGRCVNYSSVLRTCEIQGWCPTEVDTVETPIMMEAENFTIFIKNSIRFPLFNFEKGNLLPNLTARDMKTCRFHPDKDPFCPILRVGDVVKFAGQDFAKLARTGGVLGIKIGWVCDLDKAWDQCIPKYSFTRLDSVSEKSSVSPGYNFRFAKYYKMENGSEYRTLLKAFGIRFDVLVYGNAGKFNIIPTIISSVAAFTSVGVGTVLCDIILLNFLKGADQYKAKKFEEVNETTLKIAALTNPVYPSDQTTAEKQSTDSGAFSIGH
Protocol: (§1) An HEK293 cell line was used as cells. HEK293 cells were placed in a 37° C. incubator with 5% CO2 for culture. Passage was conducted when the cells grew to a density of 80% to 90%. A culture medium in an original 60 mm culture dish was discarded. After the cells were washed 3 times with a sterilized PBS solution, and the solution was blotted up. […] After the trypsin was blotted up, 3 mL of a cell culture medium was added to resuspend the cells. 0.5 mL of a resuspension solution was taken to be added into a new culture dish, and an total culture solution was supplemented to 5 mL. The culture dish was gently shaken to distribute the cells evenly, and then placed in a 37° C. incubator with 5% CO2 for culture.
(§2) First, treated slides were spread in a small 35 mm culture dish. 100 μL of resuspended cells were added, and then a total amount of a culture medium was supplemented to 2 mL. Target genes were transferred into the HEK293 cell line by adopting a calcium transfection method. Small dishes to be transfected were subjected to medium change 1 hour before transfection. 2 mL of a fresh cell culture solution was added. A 1.5 mL EP tube was taken, 200 μL of a 0.25 M CaCl2) solution was added, and 3 μg of plasmids to be transfected were added, and even mixing was conducted to form a DNA-CaCl2 solution. […] A pipette tip was used for mixing while adding. After adding all, gentle blowing and beating were conducted 8 to 10 times. After still standing for 5 minutes, they were added into small dishes. The small dishes were shaken slightly to mix the solution evenly, and the placed in a cell incubator. Culture mediums were replaced after 8 to 10 hours. Electrophysiological experiments were performed 24 to 48 hours after transfection.
(§3) Electrophysiological recording electrodes were obtained by two-step pulling by using an electrode puller (PP-10, Narishige). After an internal solution is injected into the electrodes, a water inlet resistance is 3 to 5 MΩ. During the experiment, a high potassium salt internal solution containing nystatin (K2SO4 of 75 mM, KCl of 120 mM, MgSO4 of 5 mM, HEPES of 10 mM, adjusting pH to 7.2 with Tris-base, and used after filtration) was used as an electrode internal solution. After the cells were sealed by the electrodes, there was no need to further break cell membranes in a sucked manner, but the cell membranes were bored through the perforation of the nystatin to the cell membranes, to form a hole channel. […] A clamping voltage was −60 mV, a sampling frequency was 10 kHz, and filtering was conducted at 2 kHz.
(§4) A working concentration of a P2X3 receptor agonist ATP was 1 μM, and an interval time between two times of ATP administrations was 10 minutes.

human P2X4 = target: T5, human P2X4 (Homo sapiens, UniProt Q99571); assay: Inhibitory activity against human P2X4 (electrophysiological method); assay type: cell-based; conditions: read-out: hP2X4 (IC50)
T5 construct: expressed in transfected cells; host or cells: HEK293
T5 sequence (Q99571 1-388): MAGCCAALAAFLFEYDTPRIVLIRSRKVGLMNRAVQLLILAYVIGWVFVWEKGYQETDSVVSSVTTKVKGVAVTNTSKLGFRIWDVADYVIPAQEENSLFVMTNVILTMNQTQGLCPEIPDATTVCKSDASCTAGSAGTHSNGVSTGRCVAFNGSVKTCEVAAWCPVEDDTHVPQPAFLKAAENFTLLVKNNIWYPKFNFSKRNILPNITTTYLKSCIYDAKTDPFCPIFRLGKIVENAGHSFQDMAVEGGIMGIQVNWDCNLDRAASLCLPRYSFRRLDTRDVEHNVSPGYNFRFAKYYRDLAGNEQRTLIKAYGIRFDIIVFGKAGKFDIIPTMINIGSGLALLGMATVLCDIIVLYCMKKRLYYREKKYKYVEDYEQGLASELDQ

human P2X2/3 = target: T6, human P2X2/3 (Homo sapiens, UniProt P56373+Q9UBL9); assay: Inhibitory activity against human P2X2/3 (electrophysiological method); assay type: cell-based; conditions: read-out: hP2X2/3 (IC50)
T6 construct: expressed in transfected cells; host or cells: HEK293
T6 sequence (P56373 1-397): T4 sequence (P56373 1-397)
T6 sequence (Q9UBL9 1-471): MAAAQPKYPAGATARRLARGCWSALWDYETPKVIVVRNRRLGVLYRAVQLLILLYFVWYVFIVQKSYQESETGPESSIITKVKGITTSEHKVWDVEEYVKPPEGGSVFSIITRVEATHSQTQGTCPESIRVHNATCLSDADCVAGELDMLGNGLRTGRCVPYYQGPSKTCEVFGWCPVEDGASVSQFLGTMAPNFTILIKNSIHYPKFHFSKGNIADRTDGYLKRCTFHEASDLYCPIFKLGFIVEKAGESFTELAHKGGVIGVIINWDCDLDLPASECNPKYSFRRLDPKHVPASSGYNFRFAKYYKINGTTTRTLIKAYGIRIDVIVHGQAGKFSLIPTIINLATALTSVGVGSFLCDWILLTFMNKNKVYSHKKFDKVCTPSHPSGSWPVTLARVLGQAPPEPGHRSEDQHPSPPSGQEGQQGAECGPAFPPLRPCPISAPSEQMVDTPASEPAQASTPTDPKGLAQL

human P2X3 [2] = target: T4, human P2X3; assay: Inhibitory activity against human P2X3, perforated patch clamp (electrophysiological method); conditions: read-out: hP2X3 (IC50), transfected HEK293 cells, agonist ATP 1 μM, compounds pre-administered for 2 minutes
Protocol: as §1, §2, §3, §4

pIC50 (human PAR-1)	pIC50 (gpP2X3)	pIC50 (rP2X3)	pIC50 (human P2X3 [1])	pIC50 (human P2X4)	Compound	also measured
					COc1cc(C(C)C)c(Oc2cnc(N)nc2N)cc1S(N)(=O)=O [AF-219, reference compound]	Water drinking amount, Tap water (taste of SD rats; 10 mg/kg intraperitoneal injection, free drinking 15 minutes, amounts measured to the nearest 0.1 mL): 8.69; Water drinking amount, Sum (taste of SD rats; 10 mg/kg intraperitoneal injection, tap plus quinine water, 15 minutes, measured to the nearest 0.1 mL): 14.02; Water drinking amount, Quinine (taste of SD rats; 10 mg/kg intraperitoneal injection, water with 0.3 mM quinine hydrochloride, 15 minutes, measured to the nearest 0.1 mL): 5.33; drinking amount of bitter water compared with solvent control group (taste of SD rats; 10 mg/kg intraperitoneal, result in words): increased significantly; frequency and severity of cough in patients with chronic cough (chronic cough; clinical data): significantly effective in reducing the frequency and severity of cough; taste disorders in treated subjects (chronic cough; clinical trials): can lead to taste disorders
< 4.52	6.41	6.85			Cc1ccc(C2=NN(C(=O)N[C@H](C)c3ccc(C(F)(F)F)nc3)C[C@@H]2N2CCN(C)CC2=O)cc1 [Compound 17, (S)-4-(4-methyl-2-oxopiperazin-1-yl)-3-(4-methylphenyl)-N-((R)-1-(6-(trifluoromethyl)pyridin-3-yl)ethyl)-4,5-dihydro-1H-pyrazol-1-carboxamide]	
< 4.52			6.89	< 4.70	Cc1ccc(C2=NN(C(=O)N[C@H](C)c3ccc(C(F)(F)F)nc3)C[C@@H]2N2CCCC2=O)cc1 [Compound 21]	
	6.24	7.24	7.42	< 4.70	Cc1ccc(C2=NN(C(=O)N[C@H](C)c3ccc(C(F)(F)F)nc3)C[C@H]2N2CCOC2=O)cc1 [Compound 22a, (R)-4-(2-oxooxazolidin-3-yl)-3-(4-methylphenyl)-N-((R)-1-(6-(trifluoromethyl)pyridin-3-yl)ethyl)-4,5-dihydro-1H-pyrazol-1-carboxamide]	
< 4.52	6.44	6.99	7.42	< 4.70	Cc1ccc(C2=NN(C(=O)N[C@H](C)c3ccc(C(F)(F)F)nc3)C[C@@H]2N2CCOC2=O)nc1 [Compound 23, (S)-4-(2-oxooxazolidin-3-yl)-3-(5-methylpyridin-2-yl)-N-((R)-1-(6-(trifluoromethyl)pyridin-3-yl)ethyl)-4,5-dihydro-1H-pyrazol-1-carboxamide]	pIC50 (human P2X2/3): 5.94
			7.09	< 4.70	Cc1ccc(C2=NN(C(=O)N[C@H](C)c3cnc(C(F)(F)F)nc3)C[C@H]2N2CCCC2=O)cc1 [Compound 32a, (R)-4-(2-oxopyrrolidin-1-yl)-3-(4-methylphenyl)-N-((R)-1-(2-(trifluoromethyl)pyrimidin-5-yl)ethyl)-4,5-dihydro-1H-pyrazol-1-carboxamide]	
					(S)-4-(3-oxomorpholin-4-yl)-3-(4-methylphenyl])-N- ((R)-1-(3-methyl-1,2,4-oxadiazol-5-yl)ethyl)-4,5-d ihydro-1H-pyrazol-1-carboxamide [Compound 46]	pIC50 (human P2X3 [2]): 6.82
